{"source": "EPA's ToxValDB 9.5 (doi:10.2903/j.efsa.2015.4206)", "key": {"Aphidius rhopalosiphi": {"test_system": "Aphidius rhopalosiphi", "test": "LR50; higher = less toxic", "details": "not reported; mortality"}, "Typhlodromus pyri": {"test_system": "Typhlodromus pyri", "test": "LR50; higher = less toxic", "details": "not reported; mortality"}, "Apis mellifera": {"test_system": "Apis mellifera", "details": "acute, mortality"}, "Daphnia magna": {"test_system": "Daphnia magna", "details": "chronic/long-term; duration: 21 days; reproduction"}, "Canidae": {"test_system": "Canidae", "details": "oral, Dog Other"}, "Bibionidae": {"test_system": "Bibionidae", "details": "chronic/long-term; duration: 28 days; development"}, "Oncorhynchus mykiss": {"test_system": "Oncorhynchus mykiss", "details": "chronic/long-term; duration: 21 days; growth"}, "Hypoaspis aculeifer": {"test_system": "Hypoaspis aculeifer", "details": "chronic/long-term; duration: 14 days"}, "Folsomia candida": {"test_system": "Folsomia candida", "details": "chronic/long-term; duration: 28 days"}, "Colinus virginianus": {"test_system": "Colinus virginianus", "details": "acute; oral; mortality"}}}
{"smiles": "CC(C)c1ccc(NC(=O)N(C)C)cc1", "note": "[Isoproturon]", "values": [{"measurement": "LR50", "setting": "Aphidius rhopalosiphi", "value": "> 2500", "unit": "g/ha"}, {"measurement": "LR50", "setting": "Typhlodromus pyri", "value": "> 2500", "unit": "g/ha"}, {"measurement": "LD50", "setting": "Apis mellifera; dermal", "value": "> 100", "unit": "µg/piece"}, {"measurement": "LD50", "setting": "Apis mellifera; oral, unspecified", "value": "> 99.2", "unit": "µg/piece"}, {"measurement": "NOEC", "setting": "Daphnia magna", "value": 0.12, "unit": "mg/L"}, {"measurement": "LC50", "setting": "Tagia sp.; acute, duration: 14 days, mortality", "value": "> 500", "unit": "mg/kg"}, {"measurement": "NOEC", "setting": "Tagia sp.; chronic/long-term, duration: 8 weeks", "value": 14, "unit": "mg/kg"}, {"measurement": "NOAEL", "setting": "Canidae; short-term, histopathology: nonneoplastic", "value": 3.2, "unit": "mg/kg-day"}, {"measurement": "NOAEL", "setting": "Canidae; subchronic, duration: 90 days, hematological", "value": 10, "unit": "mg/kg-day"}, {"measurement": "NOEC", "setting": "Bibionidae", "value": 0.344, "unit": "mg/L"}, {"measurement": "NOEC", "setting": "Oncorhynchus mykiss", "value": 1, "unit": "mg/L"}, {"measurement": "LD50", "setting": "Rattus norvegicus; acute, mortality", "value": 1830, "unit": "mg/kg-day"}, {"measurement": "NOEC", "setting": "Rattus norvegicus; chronic", "value": 10, "unit": "mg/kg-day"}, {"measurement": "NOAEL", "setting": "Rattus norvegicus; chronic, duration: 2 years, histopathology: neoplastic", "value": 3.1, "unit": "mg/kg-day"}, {"measurement": "NOEC", "setting": "Hypoaspis aculeifer", "value": "> 459", "unit": "mg/kg"}, {"measurement": "LC50", "setting": "Coturnix japonica; acute, oral, diet, mortality", "value": "> 5000", "unit": "mg/kg"}, {"measurement": "NOAEL", "setting": "Coturnix japonica; reproduction developmental, reproduction", "value": 12, "unit": "mg/kg-day"}, {"measurement": "NOEC", "setting": "Folsomia candida", "value": 24.3, "unit": "mg/kg"}, {"measurement": "LD50", "setting": "Colinus virginianus", "value": 1400, "unit": "mg/kg-day"}]}
